Consider 79 molecules from the METLIN SMRT retention time set (Domingo-Almenara et al. 2019).

The nature of this series: gradient 5% acetonitrile 3 min, to 50% in 2 min, to 85% in 15 min, held 3 min, 100 µL/min. To be noted: column: Zorbax Extend-C18 2.1 x 50 mm; eluents: water / acetonitrile, 0.1% formic acid. An outline of the steps:
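Data were gathered over 3 months by HPLC coupled to a quadrupole time-of-flight mass spectrometer, operated in positive and negative ionization mode. Mixtures of ~100 pure standards ran on a Zorbax Extend-C18 column (2.1 × 50 mm, 1.8 μm) at 100 μL/min, with water and acetonitrile each containing 0.1% formic acid and dead and dwell volumes of 40 μL and 900 μL. Retention time was read from adduct peaks picked by computer and checked manually.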
Regarding `O=C1C(N2CCN(S(=O)(=O)c3ccc(F)cc3F)CC2)CCN1Cc1cccnc1` (centres undefined), the RP-LC retention time came to 542 s.
As to `Cc1ccc(CN2N=C(C(=O)N3CCCC3)S(=O)(=O)c3ccccc32)cc1`, the RP-LC retention time stood at 895 s.
Next, `CC1(C(=O)NCc2ccccc2)CCCN(C(=O)Nc2cccc(Br)c2)C1` (centres undefined): 983 s; `O=C(CN1C(=O)C2CCCCN2c2ccc(C(=O)N3CCCCC3)cc21)NC1CCCCC1` (centres undefined): 889 s; `COc1cc(NC(=O)Cn2nc3nc(N4CCCC(C)C4)ccn3c2=O)cc(OC)c1` (centres undefined): 770 s.
As for `NC(=O)C1CCN(C(=O)c2cc(-n3cnnn3)ccc2Cl)CC1`, the RP-LC retention time is 592 s.
Consider `Cc1ccc(Nc2ncccc2S(N)(=O)=O)cc1C`, for which the RP-LC retention time stood at 852 s.
The same measure for `Cc1cc(N(CCO)CCO)n2nc(-c3ccc(C(C)(C)C)cc3)nc2n1`: 687 s.
Regarding `CCOc1ccc(S(=O)(=O)N2CCCC(C(=O)Nc3cccc(C)c3)C2)cc1` (centres undefined), the RP-LC retention time was found to be 1050 s.
Next, `CN1CCCCCCN(C(=O)C2(c3ccccc3)CC2)[C@H]2CCC[C@H]2C1=O`: 958 s; `CCNC(=O)c1cc(C)nc2ccc(Cl)cc12`: 649 s; `COc1nccc(N2CCC(CC(=O)NCc3ccc(OC)c(OC)c3)CC2)n1`: 575 s.
Take `CN(c1ncccc1CNc1nc(Nc2ccc3c(c2)CC(=O)N3)ncc1C(F)(F)F)S(C)(=O)=O`: the RP-LC retention time worked out at 678 s.
Regarding `C/C(=C\c1csc(C)n1)C1C[C@@H]2O[C@]2(C)CCC[C@H](C)[C@H](O)[C@@H](C)C(=O)C(C)(C)[C@@H](O)CC(=O)O1` (some centres undefined), the RP-LC retention time stood at 901 s.
Molecule `CCOC(=O)C1=C(CN2CCN(c3ccccn3)CC2)NC(=O)NC1c1cccs1` (centres undefined) showed an RP-LC retention time of 919 s.
As to `O=C(c1ccoc1)N1CCCCC1c1nc(-c2cnccn2)no1` (centres undefined), the RP-LC retention time turned out to be 664 s.
As for `CCOCC(=O)N1C[C@@H]2CCCN3CCC[C@@H]([C@H]23)[C@H]1CCCC(=O)N1CCOCC1`, the RP-LC retention time came to 563 s.
The same measure for `COc1ccc(C(=O)Oc2ccc[nH]c2=O)cc1`: 721 s; for `O=C(COC(=O)C(c1ccccc1)c1ccccc1)Nc1ccc2c(c1)OCO2`: 940 s.
The same measure for `Cc1cc(NC(=O)CN2C(=O)C(C(=O)N3CCCC3)Sc3ccccc32)ccc1Br` (centres undefined): 971 s; for `COc1ccc(N2CCN(C(=O)CC(C)S(=O)(=O)c3ccc4c(c3)CCN4C(C)=O)CC2)cc1` (centres undefined): 754 s.
Next, `Cc1ccc(-c2nc(-c3ccc4c(c3)nnn4CCN3CCOCC3)no2)cc1C`: 760 s; `Cc1ccc(CNC(=O)C2(C)CCCN(C(=O)Nc3cccc(Cl)c3)C2)cc1` (centres undefined): 1040 s; `COc1ccccc1-c1noc(C2CCCN2C(=O)c2cccc(OC)c2OC)n1` (centres undefined): 993 s.
`C(=N/NC1=NCCN1)/c1c2ccccc2c(/C=N\NC2=NCCN2)c2ccccc12`: the RP-LC retention time worked out at 590 s.
In the case of `O=S(=O)(c1cccnc1)N1CCC(c2ccccc2)C1` (centres undefined), the RP-LC retention time was determined as 773 s.
In turn, `CN(CC1(C)CCOCC1)S(=O)(=O)c1cccc(C(F)(F)F)c1` returned an RP-LC retention time of 980 s.
`Nc1nc(CN2CCN(c3ccccn3)CC2)nc(Nc2cccc(Cl)c2)n1` registered an RP-LC retention time of 788 s.
The molecule `CCn1c(=O)c(C)nc2cc(-c3noc(-c4ccc5c(c4)OCO5)n3)ccc21` registered an RP-LC retention time of 1030 s.
`Cc1nc2n(c(=O)c1C)CCN2CC(=O)NCc1ccco1`: the RP-LC retention time turned out to be 596 s.
The molecule `CCS(=O)(=O)N1CCC(Cn2c(C)cnc2-c2ccccc2)C1` (centres undefined) came in with an RP-LC retention time of 576 s.
Next, `CCC1CCCCN1C(=O)CC1CCN(S(=O)(=O)c2ccc3c(c2)oc(=O)n3C)CC1` (centres undefined): 872 s; `Cc1cccc(S(=O)(=O)N2C[C@@H](F)C[C@H]2C(=O)N2CCc3ccccc3C2)c1`: 906 s; `Cc1ccc(CS(=O)(=O)N2CCC(C3CCNC3)CC2)cc1` (centres undefined): 588 s.
Next, `Cn1c(SCC(=O)N2CCCCC2)nnc1-c1ccc2c(c1)OCCCO2`: 664 s; `CCNC(=O)c1ccc2c(c1)CCN2C(=O)CC`: 651 s; `CC(C)CNC(=O)N1CCC(CCOc2ccncc2)CC1`: 594 s.
In the case of `Cc1ccc(NC(=O)N2CCC(n3c(-c4ccco4)nc4cccnc43)C2)cc1F` (centres undefined), the RP-LC retention time came to 815 s.
Consider `Cc1nn(-c2cc(N3CCCCC3)ncn2)c(C)c1CCC(=O)Nc1ccc2c(c1)OCO2`, for which the RP-LC retention time turned out to be 921 s.
On to `Cc1ccc(C)c(S(=O)(=O)N2c3ccccc3CC2c2nc(C(C)C)no2)c1` (centres undefined), for which the RP-LC retention time amounted to 1230 s.
Next, `CN(CCc1noc(-c2ccccc2Cl)n1)C(=O)COc1ccccc1`: 900 s.
`CCS(=O)(=O)N1CC(=O)N(c2ccc(C)cc2)C(C)(C(=O)NC2CCCCCCC2)C1` (centres undefined) had an RP-LC retention time of 979 s.
In the case of `COc1ccc(-c2nc(C3CC(=O)N(c4ccc(Cl)cc4)C3)no2)cc1F` (centres undefined), the RP-LC retention time was determined as 1030 s.
For `COc1ccc(NS(=O)(=O)c2cc3c(s2)CCN(C(=O)C2CC2)C3)cc1OC`, the RP-LC retention time was determined as 734 s.
The same measure for `COc1cccc(-c2nc(-c3ccc(S(=O)(=O)N4CCCC4)cc3)no2)c1`: 1180 s; for `Cc1ccc(-c2nnc(-c3cccc(S(=O)(=O)Nc4cccnc4)c3)o2)cc1`: 775 s.
As to `COc1ccc(S(=O)(=O)N2CCCC(C(=O)NCCCO)C2)cc1OC` (centres undefined), the RP-LC retention time worked out at 880 s.
In turn, `CCC(=O)Nc1ccc(-n2cnc(C(=O)NCC3CC3)c2)nc1` showed an RP-LC retention time of 660 s.
`CCC(=O)N1CCc2cc(C(=O)N3CCN(c4ccc(C(C)=O)cc4)CC3)ccc21` showed an RP-LC retention time of 736 s.
As to `CCOc1ccc(-n2nnc3c(=O)n(C/C=C/c4ccccc4)cnc32)cc1`, the RP-LC retention time turned out to be 969 s.
With `CCC(=O)N1C[C@@H]2C(=O)N(CCc3ccccc3)C(=O)[C@@H]2C1`, the RP-LC retention time is 702 s.
`O=C(Cc1ccccc1)N1CC(Oc2ccc(-c3nc(-c4ccccc4)no3)cc2)C1` gave an RP-LC retention time of 1150 s.
In turn, `Cc1ccccc1Cn1cc(-c2ccncc2)cc1C(=O)NCc1cccs1` showed an RP-LC retention time of 741 s.
In the case of `COc1cccc2cc(C(=O)Nc3nc4c(s3)CN(S(=O)(=O)C3CC3)CC4)oc12`, the RP-LC retention time turned out to be 811 s.
The same measure for `CC1CCN(C(=O)C2CCN(c3nc4ccc(-c5ccccc5F)nc4s3)CC2)CC1`: 1170 s.
In turn, `O=C(NCc1ccc(F)cc1)N1CCC(n2c(-c3ccco3)nc3cccnc32)C1` (centres undefined) returned an RP-LC retention time of 730 s.
For the molecule `CCN(CC)CCCNC(=O)C1CCCN(C(=O)c2nnc(C(=O)Nc3ccc(F)cc3)s2)C1` (centres undefined), the RP-LC retention time turned out to be 652 s.
Next, `CCC(CC)C(=O)Nc1nc(-c2ccc(Cl)cc2)cs1`: 1150 s.
As to `Cn1nc(-c2ccccc2)cc1C(=O)N1CCC(C(=O)Nc2nccs2)CC1`, the RP-LC retention time worked out at 712 s.
For `Cc1ccc(Nc2c(-c3ccccc3)nc3cnccn23)c(C)c1`, the RP-LC retention time was 982 s.
For the molecule `CNC(=O)c1noc([C@@H]2CC(F)(F)CN2C(=O)CCOC)n1`, the RP-LC retention time turned out to be 607 s.
Next, `CN(Cc1ccccc1)C(=O)C1CCN(S(=O)(=O)Cc2ccccc2)CC1`: 867 s; `Cc1noc(C2CCCCCN2C(=O)NC(C)C)n1` (centres undefined): 708 s; `COc1ccc2[nH]cc(CCNCc3ccc(Br)cc3)c2c1`: 764 s.
Take `CC(C)Oc1ccc(C(=O)Nc2nc(-c3cccnc3)cs2)cc1`: the RP-LC retention time stood at 660 s.
Next, `CCCc1nc2ccc(CCC(=O)NCc3ccc(F)cc3)cc2[nH]1`: 624 s; `COc1ccc(Cl)cc1NC(=O)C(=O)c1cccn1C`: 1140 s; `COc1ccc(-c2noc(C3CC(=O)N(c4ccc(F)cc4)C3)n2)c(OC)c1` (centres undefined): 850 s.
In the case of `c1cc(-c2noc(C3CCC3)n2)cc(N2CCOCC2)n1`, the RP-LC retention time is 804 s.
Regarding `CCOc1ccc(NC(=O)CSc2cc(N3CCN(c4ccc(OC)cc4)CC3)ncn2)cc1`, the RP-LC retention time is 1160 s.
In the case of `CCN1CCN(c2ccc(NC(C)=O)cn2)C1=O`, the RP-LC retention time is 567 s.
The same measure for `CCN(CC)CCNC(=O)C1CCN(C2=NS(=O)(=O)C(c3ccc(Cl)cc3)=C2C)CC1`: 658 s; for `Cc1ccc(Oc2nccnc2SCC(=O)Nc2ccc(C)c(C)c2)cc1`: 1140 s.
Regarding `CCN1CCN(Cc2ccc(C(=O)Nc3ccc(C)c(Oc4ccc5c(c4)CC(=O)N5)c3)cc2C(F)(F)F)CC1`, the RP-LC retention time came out at 817 s.
Molecule `CCc1ccc(NC(=O)C2CCCN(S(=O)(=O)c3c[nH]c(C(=O)N4CCCC4)c3)C2)cc1` (centres undefined) displayed an RP-LC retention time of 873 s.
The molecule `O=C(NCc1ccco1)c1cc2c(s1)CCN(C(=O)c1ccccc1)C2` registered an RP-LC retention time of 758 s.
`CNc1cccnc1OC1CCN(S(=O)(=O)c2ccc3c(c2)CCC3)C1` (centres undefined) had an RP-LC retention time of 765 s.
As for `CC(C)(C)N(CC(=O)N(Cc1ccco1)CC1CCCO1)C(=O)Cc1ccccc1` (centres undefined), the RP-LC retention time is 907 s.
As to `CC(=O)c1ccc(NC(=O)CCc2c(C)nn(-c3cc(N(C)C)ncn3)c2C)cc1`, the RP-LC retention time stood at 749 s.
